Calls of active or inactive are those of the source.
Key:
[1] = biological target: T1, Cysteine protease ATG4B (Homo sapiens, UniProt Q9Y4P1); format: functional;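 also: Fluorescence-based dose-response confirmation assay measuring inhibition of ATG4B activity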
T1 sequence (Q9Y4P1 whole entry): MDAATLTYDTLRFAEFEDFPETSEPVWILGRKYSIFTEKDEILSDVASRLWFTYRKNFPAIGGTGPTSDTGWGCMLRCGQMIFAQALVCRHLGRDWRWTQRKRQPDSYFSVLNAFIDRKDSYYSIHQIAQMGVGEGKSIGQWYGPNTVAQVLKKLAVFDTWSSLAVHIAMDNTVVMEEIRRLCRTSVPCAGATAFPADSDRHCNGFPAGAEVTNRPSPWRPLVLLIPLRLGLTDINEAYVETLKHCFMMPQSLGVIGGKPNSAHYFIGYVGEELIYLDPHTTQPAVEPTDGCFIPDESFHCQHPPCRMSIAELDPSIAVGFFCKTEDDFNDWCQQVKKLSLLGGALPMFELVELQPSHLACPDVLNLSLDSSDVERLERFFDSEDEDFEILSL

[2] = biological target: Cannabinoid receptor 1 (Homo sapiens, UniProt P21554); assay: SAR analysis of antagonists of the Cannabinoid Receptor 1 using an Image-Based Assay. [Related pubchem assays (depositor defined):AID1961, AID1965]; format: functional
[3] = biological target: T2, Heat shock factor protein 1 (Mus musculus, UniProt P38532); assay: decrease of HSF1-responsive luciferase luminescence – cell-based, NIH3T3, dose retest, confirmation (AID 2382); format: functional;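 also: NIH3T3 fibroblasts with HSF1-driven luciferase reporter stressed by proteasome inhibitor MG132; luminescence from HSF1-driven luciferase expression after 8 hours of MG132 stress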
T2 sequence (P38532 whole entry): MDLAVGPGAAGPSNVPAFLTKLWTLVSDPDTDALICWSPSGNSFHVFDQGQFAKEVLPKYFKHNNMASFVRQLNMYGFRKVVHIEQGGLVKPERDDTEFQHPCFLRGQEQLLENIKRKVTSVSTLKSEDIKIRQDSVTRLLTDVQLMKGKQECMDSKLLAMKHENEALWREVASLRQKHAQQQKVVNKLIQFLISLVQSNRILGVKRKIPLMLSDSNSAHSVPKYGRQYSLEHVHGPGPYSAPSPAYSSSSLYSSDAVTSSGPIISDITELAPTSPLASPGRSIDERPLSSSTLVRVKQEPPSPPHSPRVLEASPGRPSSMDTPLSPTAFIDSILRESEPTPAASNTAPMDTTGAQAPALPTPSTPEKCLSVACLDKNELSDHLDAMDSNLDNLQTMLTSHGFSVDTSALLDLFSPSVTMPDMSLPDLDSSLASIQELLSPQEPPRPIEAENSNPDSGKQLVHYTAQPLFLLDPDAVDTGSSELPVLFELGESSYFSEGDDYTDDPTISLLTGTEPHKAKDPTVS

[4] = biological target: Phospholipase A2 (Homo sapiens, UniProt P04054); format: functional;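 also: confirmatory dose-response counterscreen on phospholipase A2, testing hits that came from an ultra-high-throughput screen for ATG4B inhibitors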
[5] = biological target: T3, G-protein coupled receptor 55 (Homo sapiens, UniProt Q9Y2T6); assay: selective activators of receptor GPR55 – imaging, U2OS cells, beta-arrestin-GFP redistribution, primary screen (AID 1961); format: functional
[6] = biological target: T4, Cannabinoid receptor 2 (Homo sapiens, UniProt P34972); assay: SAR analysis of antagonists of the Cannabinoid Receptor 2 using an Image-Based Assay - Set 2. [Related pubchem assays (depositor defined):AID1961, AID1965]; format: functional
[7] = biological target: T3, G-protein coupled receptor 55; assay: SAR analysis of selective Agonists of GPR55 using an Image-Based Assay. [Related pubchem assays (depositor defined):AID1961, AID1965]; format: functional
[8] = biological target: T4, Cannabinoid receptor 2; assay: SAR analysis of agonists of the Cannabinoid Receptor 2 using an Image-Based Assay - Set 2. [Related pubchem assays (depositor defined):AID1961, AID1965]; format: functional
[9] = tested on: H9c2; assay: cells; format: functional, cell-based; conditions: Rattus norvegicus, H9c2, Myocardium;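 also: confirmatory concentration-response retest of ultra-high-throughput screening hits for modulation of myocardial damage; cell death induced by hydrogen peroxide oxidative stress; compound pretreatment for 60 min then peroxide exposure for 2 h; potency is for protecting the cells against peroxide damage rather than for killing them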
[10] = biological target: Exodeoxyribonuclease V (Escherichia coli (strain K12), UniProt P04993+P07648+P08394); assay: RecBCD inhibition via phage-restricted bacterial growth – absorbance, V66 E. coli, mutant T4 phage, counter-screen for AddAB inhibitor project, dose response (AID 492957); format: functional, cell-based, Escherichia coli str. K-12 substr. MG1655
[11] = Counterscreen for AddAB inhibitors: absorbance-based bacterial cell-based high throughput dose response assay for inhibitors of bacterial viability. [Related pubchem assays (depositor defined):AID435030, AID449728, AID449731, AID488942, AID488955, AID488956]; format: functional

T4 sequence (P34972 whole entry): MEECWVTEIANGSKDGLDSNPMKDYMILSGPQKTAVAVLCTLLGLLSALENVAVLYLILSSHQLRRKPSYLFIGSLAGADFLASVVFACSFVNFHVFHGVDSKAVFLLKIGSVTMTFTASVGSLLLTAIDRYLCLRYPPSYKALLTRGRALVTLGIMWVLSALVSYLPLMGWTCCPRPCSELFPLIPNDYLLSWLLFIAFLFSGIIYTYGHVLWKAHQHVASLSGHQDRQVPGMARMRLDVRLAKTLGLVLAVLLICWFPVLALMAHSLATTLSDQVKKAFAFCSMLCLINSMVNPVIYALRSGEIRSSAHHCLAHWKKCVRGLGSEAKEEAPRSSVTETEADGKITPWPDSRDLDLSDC
T3 sequence (Q9Y2T6 whole entry): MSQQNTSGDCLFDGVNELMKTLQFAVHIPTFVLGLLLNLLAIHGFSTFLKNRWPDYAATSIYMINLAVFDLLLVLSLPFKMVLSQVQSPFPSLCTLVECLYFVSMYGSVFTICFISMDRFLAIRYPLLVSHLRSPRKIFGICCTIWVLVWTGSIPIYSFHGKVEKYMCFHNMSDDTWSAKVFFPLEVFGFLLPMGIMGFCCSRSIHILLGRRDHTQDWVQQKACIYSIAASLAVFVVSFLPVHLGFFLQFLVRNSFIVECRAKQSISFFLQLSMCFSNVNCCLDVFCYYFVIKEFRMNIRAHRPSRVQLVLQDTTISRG
Chain of Exodeoxyribonuclease V (P04993 whole entry): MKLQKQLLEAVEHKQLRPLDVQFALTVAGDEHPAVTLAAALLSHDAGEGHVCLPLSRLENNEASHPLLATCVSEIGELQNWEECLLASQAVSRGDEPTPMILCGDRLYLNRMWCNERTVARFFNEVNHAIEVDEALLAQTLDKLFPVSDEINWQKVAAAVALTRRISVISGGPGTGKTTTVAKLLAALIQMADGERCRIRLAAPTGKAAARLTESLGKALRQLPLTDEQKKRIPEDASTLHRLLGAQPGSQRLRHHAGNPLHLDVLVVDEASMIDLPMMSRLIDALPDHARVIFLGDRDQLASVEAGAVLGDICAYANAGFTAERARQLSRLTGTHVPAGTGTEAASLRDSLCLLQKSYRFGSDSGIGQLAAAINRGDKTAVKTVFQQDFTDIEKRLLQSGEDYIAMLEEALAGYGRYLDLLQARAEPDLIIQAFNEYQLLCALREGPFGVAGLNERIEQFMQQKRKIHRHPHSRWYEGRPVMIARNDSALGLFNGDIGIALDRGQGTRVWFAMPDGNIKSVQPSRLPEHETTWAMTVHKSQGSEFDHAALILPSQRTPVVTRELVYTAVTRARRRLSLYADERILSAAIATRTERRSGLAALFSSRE
Chain of Exodeoxyribonuclease V (P07648 whole entry): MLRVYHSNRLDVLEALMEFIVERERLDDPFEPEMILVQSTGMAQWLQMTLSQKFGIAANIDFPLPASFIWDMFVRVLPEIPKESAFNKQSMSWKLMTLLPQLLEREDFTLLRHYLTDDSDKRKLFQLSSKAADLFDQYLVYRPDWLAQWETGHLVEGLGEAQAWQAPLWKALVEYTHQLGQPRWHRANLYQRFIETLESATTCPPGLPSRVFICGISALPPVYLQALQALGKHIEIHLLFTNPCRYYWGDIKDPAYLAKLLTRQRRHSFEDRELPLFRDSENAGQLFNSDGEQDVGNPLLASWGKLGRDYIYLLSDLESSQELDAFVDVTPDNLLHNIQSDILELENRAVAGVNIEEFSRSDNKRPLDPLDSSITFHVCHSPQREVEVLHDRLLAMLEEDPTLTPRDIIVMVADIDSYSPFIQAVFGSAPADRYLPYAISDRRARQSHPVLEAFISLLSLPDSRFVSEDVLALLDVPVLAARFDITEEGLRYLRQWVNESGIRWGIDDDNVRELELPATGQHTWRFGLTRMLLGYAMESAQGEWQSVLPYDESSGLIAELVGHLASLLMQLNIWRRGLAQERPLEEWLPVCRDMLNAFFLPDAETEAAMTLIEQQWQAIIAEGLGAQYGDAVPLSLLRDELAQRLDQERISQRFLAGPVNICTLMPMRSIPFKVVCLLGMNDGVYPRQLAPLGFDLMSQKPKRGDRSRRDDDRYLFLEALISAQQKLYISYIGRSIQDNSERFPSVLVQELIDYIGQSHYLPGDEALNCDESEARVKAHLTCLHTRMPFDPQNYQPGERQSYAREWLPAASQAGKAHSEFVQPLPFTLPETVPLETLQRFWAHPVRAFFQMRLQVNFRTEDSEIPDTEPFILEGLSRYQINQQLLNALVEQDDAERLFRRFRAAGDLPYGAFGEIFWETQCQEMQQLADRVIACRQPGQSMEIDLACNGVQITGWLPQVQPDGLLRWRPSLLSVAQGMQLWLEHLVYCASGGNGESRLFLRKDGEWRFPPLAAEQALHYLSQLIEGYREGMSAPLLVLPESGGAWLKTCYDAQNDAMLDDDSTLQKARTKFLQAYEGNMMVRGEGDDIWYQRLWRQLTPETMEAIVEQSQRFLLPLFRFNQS
Chain of Exodeoxyribonuclease V (P08394 whole entry): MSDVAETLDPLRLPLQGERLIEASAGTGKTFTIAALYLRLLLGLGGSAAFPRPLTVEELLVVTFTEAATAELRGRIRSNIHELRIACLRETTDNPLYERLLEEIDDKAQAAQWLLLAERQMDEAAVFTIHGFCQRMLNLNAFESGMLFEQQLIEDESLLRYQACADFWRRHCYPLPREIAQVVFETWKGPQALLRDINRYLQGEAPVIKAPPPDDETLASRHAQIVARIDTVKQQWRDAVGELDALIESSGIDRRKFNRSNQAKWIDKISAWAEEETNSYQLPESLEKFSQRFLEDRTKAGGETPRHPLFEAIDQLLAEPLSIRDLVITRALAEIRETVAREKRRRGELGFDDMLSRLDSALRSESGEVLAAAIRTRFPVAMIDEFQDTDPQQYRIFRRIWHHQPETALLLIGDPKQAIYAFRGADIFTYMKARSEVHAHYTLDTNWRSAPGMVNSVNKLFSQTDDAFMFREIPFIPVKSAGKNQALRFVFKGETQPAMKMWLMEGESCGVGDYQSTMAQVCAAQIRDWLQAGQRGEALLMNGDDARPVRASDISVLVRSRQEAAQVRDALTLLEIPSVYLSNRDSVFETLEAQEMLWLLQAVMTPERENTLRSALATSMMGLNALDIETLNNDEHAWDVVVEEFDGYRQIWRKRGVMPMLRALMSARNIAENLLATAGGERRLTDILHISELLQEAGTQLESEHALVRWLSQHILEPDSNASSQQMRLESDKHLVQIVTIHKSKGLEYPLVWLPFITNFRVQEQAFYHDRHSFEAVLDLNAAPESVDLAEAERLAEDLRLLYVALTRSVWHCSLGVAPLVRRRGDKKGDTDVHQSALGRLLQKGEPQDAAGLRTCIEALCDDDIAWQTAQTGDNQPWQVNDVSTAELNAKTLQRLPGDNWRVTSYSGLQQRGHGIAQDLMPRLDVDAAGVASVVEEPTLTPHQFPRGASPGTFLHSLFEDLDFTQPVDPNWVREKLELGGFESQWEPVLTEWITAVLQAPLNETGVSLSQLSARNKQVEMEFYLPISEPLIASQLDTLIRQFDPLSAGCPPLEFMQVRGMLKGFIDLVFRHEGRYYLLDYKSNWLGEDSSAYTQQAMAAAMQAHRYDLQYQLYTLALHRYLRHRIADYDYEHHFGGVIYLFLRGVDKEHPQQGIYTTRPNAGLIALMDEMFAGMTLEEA
Chain of Phospholipase A2 (P04054 whole entry): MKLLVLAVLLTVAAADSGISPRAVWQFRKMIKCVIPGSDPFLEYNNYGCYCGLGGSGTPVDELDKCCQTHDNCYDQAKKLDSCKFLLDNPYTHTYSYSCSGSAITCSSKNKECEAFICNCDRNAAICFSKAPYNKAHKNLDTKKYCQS
Chain of Cannabinoid receptor 1 (P21554 whole entry): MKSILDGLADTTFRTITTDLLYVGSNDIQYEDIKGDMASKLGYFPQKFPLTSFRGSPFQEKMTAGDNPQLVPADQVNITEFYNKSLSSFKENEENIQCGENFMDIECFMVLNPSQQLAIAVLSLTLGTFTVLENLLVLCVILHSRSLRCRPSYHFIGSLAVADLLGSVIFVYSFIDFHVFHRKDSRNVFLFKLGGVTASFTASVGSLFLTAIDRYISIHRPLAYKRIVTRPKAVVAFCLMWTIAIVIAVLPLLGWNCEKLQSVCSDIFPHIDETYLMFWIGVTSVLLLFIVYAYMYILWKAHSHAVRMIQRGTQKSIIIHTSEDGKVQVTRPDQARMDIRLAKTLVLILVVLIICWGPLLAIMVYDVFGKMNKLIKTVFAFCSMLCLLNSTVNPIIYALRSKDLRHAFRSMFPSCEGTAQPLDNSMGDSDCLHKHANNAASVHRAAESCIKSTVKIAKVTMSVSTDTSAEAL

Compound	IC50 [1]	IC50 [2]	EC50 [3]	IC50 [4]	EC50 [5]	IC50 [6]	EC50 [7]	EC50 [8]	IC50 [9]	IC50 [10]	IC50 [11]
COc1cc2c(cc1NC(=O)C(C)Sc1ccc(NC(C)=O)cc1)oc1ccccc12 (stereo unspecified)	14.7 µM (active)	> 32 µM (inactive)	> 195 µM (not active)	10 µM (active)	0.806 µM (active)	> 32 µM (inactive)	0.865 µM (active)	> 32 µM (inactive)	–	–	–
O=C1c2ccccc2NC(c2ccc(-c3cccc([N+](=O)[O-])c3)o2)N1O (stereo unspecified)	–	–	–	–	–	–	–	–	11.9 µM (active)	> 119 µM (inactive)	> 119 µM (inactive)

Source: ChEMBL document CHEMBL1201862, “PubChem BioAssay data set” (2004)
